# Assay results published in patent US9636299B2, “Method for treating diabetic retinopathy” (XAVIER UNIVERSITY OF LOUISIANA, priority 2012, dated 2017).
# Residues, ends and D or L forms follow the SMILES beside them.
# How the values were obtained:
# [1] = test system: VEGF-induced ocular angiogenesis; conditions: rabbit eye model, reference 17; cited from earlier work
# heparanase [2] = experiment: Streptozotocin-induced diabetic mice, heparanase expression; type: in vivo, mouse; conditions: either 14-day eye drop application or systemic i/p injection
# Procedure: (§1) Streptozotocin (STZ) induced diabetes. Twelve week old C57Bl/6 mice were used for this study. Mice were induced to have diabetes by intraperitoneal injection of 170 μg/g of streptozotocin (Sigma Aldrich, St. Louis, Mo.). Controls were injected with a vehicle (0.01M sodium citrate buffer). On the third day after STZ treatment, mice tail veins were bled to test the hyperglycemic status using blood sugar detection kit (Lifescan; Johnson & Johnson, Milpitas, Calif.). Mice with blood sugar levels of >300 mg/dL on the third day after STZ treatment were considered diabetic. Eye drop treatment containing 1% apoEdp or vehicle PBS was continued 4 times a day for 14 consecutive days. Intra-peritoneal (i/p) injection containing 40 mg/kg of apoEdp or vehicle control PBS was administered once daily for 14 consecutive days. On the 15th day post-treatment, mice were euthanized, their eyes enucleated, and the retinas dissected out to use for mRNA or Western blot analysis.
# Increased vascular permeability in diabetic retinopathy (DR) is reported to result in a concomitant increase of VEGF. The VEGF pathway is known to play a role in breakdown of the BRB through a mechanism involving the down regulation of tight junction proteins in the retinal microvasculature (20).
# heparanase [3] = experiment: Heparanase expression in high glucose-treated hRMECs (Western blot); type: cell-based, human; conditions: 30 mM glucose 72 hours, 50 or 100 μM apoEdp
# Source text: Cell Culture. Primary cultures of human retina microvascular endothelial cells (hRMECs) were purchased from the Applied Cell Biology Research Institute and grown on attachment factor-coated plates in cell systems complete (CSC) medium (Cell Systems, Kirkland, Wash.) supplemented with 20% fetal bovine serum, culture boost (animal derived growth factors) and bac-off (antibiotics). The primary hRMECs were used in their passages 4 to 6. The 18-a.a. apoE mimetic peptide apoEdp (SEQ ID NO:3, Ac-LRKLRKRLLLRKLRKRLL-amide), derived from the human apolipoprotein E receptor-binding region (see SED ID NO:1) between residues 141 and 149, was synthesized (Genemed, Arlington, Tex.) with a purity of greater than 95%. The apoEdp peptide was dissolved in phosphate-buffered saline (“PBS”) at a concentration appropriate for further experimental use. […]
# Western Blotting. […] The total protein concentration was determined using a BCA protein assay kit (Pierce, Rockford, Ill.). […] To ensure the equal loading of protein in each lane, each membrane was stripped and re-probed with an antibody against β-actin, and the chemiluminescence was detected as described previously. After scanning the blots with a flatbed scanner, band intensities were analyzed using ImageJ (NIH) and the relative intensity values were normalized to control values. […]
# LRP-1 = experiment: Streptozotocin-induced diabetic mice, retinal LRP-1 protein; type: in vivo, mouse
# Procedure: as §1
smiles,measurement,setting,value
"CC(=O)N[C@@H](CC(C)C)C(=O)N[C@@H](CCCNC(=N)N)C(=O)N[C@@H](CCCCN)C(=O)N[C@@H](CC(C)C)C(=O)N[C@@H](CCCNC(=N)N)C(=O)N[C@@H](CCCCN)C(=O)N[C@@H](CCCNC(=N)N)C(=O)N[C@@H](CC(C)C)C(=O)N[C@@H](CC(C)C)C(=O)N[C@@H](CC(C)C)C(=O)N[C@@H](CCCNC(=N)N)C(=O)N[C@@H](CCCCN)C(=O)N[C@@H](CC(C)C)C(=O)N[C@@H](CCCNC(=N)N)C(=O)N[C@@H](CCCCN)C(=O)N[C@@H](CCCNC(=N)N)C(=O)N[C@@H](CC(C)C)C(=O)N[C@@H](CC(C)C)C(N)=O [apoEdp, Ac-LRKLRKRLLLRKLRKRLL-amide] (Ac-LRKLRKRLLLRKLRKRLL-NH2)",VEGF-induced ocular angiogenesis,[1],blocks
same,Increased expression of heparanase,heparanase [2],reversed increased expression of heparanase
same,High glucose-induced expression of heparanase,heparanase [3],suppressed the expression
same,Retinal LRP-1 protein levels,LRP-1; 1% apoEdp via eye drops,significant reduction
same,Retinal LRP-1 protein levels,LRP-1; 1% apoEdp via intraperitoneal (i/p) injection,significant reduction
